System: amyloid plaques in mice brains
Assay: MicroPET images of transgenic mice
Assay type: in vivo
Settings: Tg2576 mice; dynamic microPET, total acquisition time 55-77 min
Method: All the animal experiments were performed according to the established animal protocol. The transgenic mice (Tg2576) were anaesthetised via intravenous injection with a 40 uL solution of ketamine and xylazine (4:1) before the injection of the tracer radiolabelled with ^18F: 5-[^18F]-fluoro-8-hydroxy-7-iodoquinoline. The mice were placed in supine position and scanned using microPET. A dynamic microPET study was performed using 15 planes and 15 to 16 frames (dynamic sequence: 6×30 s, 4×1 min, 2×5 min, 2×10 min, and 1-2×20 min) for a total acquisition time of 55-77 min. Images were reconstructed using the appropriate algorithms (Filter-back projection algorithm) and a cut-off frequency of 0.5. Images were reconstructed by means of a filtered iteration resulting in an image resolution of 1.8 mm and a volumetric resolution of about 6 mm^3. Transverse planes were reoriented to obtain the coronal and axial sections of the mice brains. Regional uptake is expressed in activity per gram of tissue.

Structure (SMILES): Oc1c(I)cc([18F])c2cccnc12 [5-[^18F]-fluoro-8-hydroxy-7-iodoquinoline]
- detection of amyloid plaques in microPET images: adequate detection of the amyloid plaques

Reference: patent publication US20080063599A1, “Compounds Which Can Be Used To Diagnose And Monitor Diseases Associated With The Formation Of Amyloid Protein Fibrils” (priority 2002, published 2008)
